The assay concerns Hedgehog signaling pathway. The experiment in a line: Gli-Luc luciferase reporter gene assay in C3H10T1/2/Gli-Luc cells under Shh-N stimulation. In kind it is cell-based. The settings on record: Mus musculus, C3H 10T1/2, 24 h, luciferase RLU, read-out: biological activity: IC50 of the inhibitory activities of compounds on the hedgehog pathway. The source says:
The luciferase (Gli-Luc) reporter gene with Gli response element was transfected into C3H10T1/2 cells, under Shh-N stimulation conditions, determine the Hedgehog signaling pathway inhibitors through the detection of gene expression in cell activity report. In this study, we evaluated the inhibitory effects of compounds on Hedgehog signaling pathway in the IC50 value of the compound as an index.
Cell lines: C3H10T1/2/Gli-Luc stable cell line • C3H10T1/2/Gli-Luc Cell culture medium (DMEM/high glucose HyClone, #SH30022.01B; 10% serum Hyclone, #SV30087; 0.4% Hygromycin B Roche, #13398200) • 0.25% Trypsin-EDTA (Gibco, #25200)
Shh-N, HEK293/SHH-N stable cell culture supernatant
Inoculate the logarithmic growth phase of C3H10T1/2/Gli-Luc cells into a 96-well culture plate with 20000 cells per well, cells were cultured in a 37° C., 5% CO2 incubator overnight. The next day, the compounds were diluted in the following ways: the positive compound GDC0449 (1 mM) and the compounds (1 mM) to be measured were serially diluted to 7 concentrations by DMSO according to 1:3 and 1:10 respectively, the eighth is for DMSO control, and then diluted with fresh medium 100 times. The medium of the cells cultured overnight was removed, 80 μL fresh culture medium was added per well, then 20 μL gradiently diluted positive compound and compounds to be measured and 100 μL 30 nM Shh-N containing conditioned medium were added, each concentration repeated 2 wells, at the same time, positive and negative reference well were set (i.e. Shh Ctrl: 80 μL fresh medium+20 μL 1% DMSO containing medium+100 μL 30 nM Shh-N containing conditioned medium; Unstimulated Ctrl: 180 μL fresh medium+20 μL 1% DMSO containing medium), cells were cultured in the incubator for further 24 h.
Intracellular luciferase activity detection: take the cells out of 96-well plate, discard the culture medium, the cells were washed with PBS twice, then each well added with 20 μL lysate (Promega E1531), oscillate pyrolysis at room temperature for 30 min. 5 μL cell lysates were transferred to 384-well plate (Greiner 781074), then each well was added with 25 μL luciferase reaction liquid (Promega E1501), after rapid mixed, immediately placed into the VarioSkan Flash multi-function reading instrument to read the relative light units (RLU) value.
Data analysis: using Prism's GraphPad 5 for data analysis. RLU reading to the logarithmic mapping of compound concentration on behalf of luciferase activity, and then curve fitting using the following equation to give IC50 value, Y (RLU)=minimum+(maximum−minimum)/(1+10^(log of compound concentration−Log IC50)).
A general note: Reporter assays use an easily measured gene product as a stand-in for the process of interest.

Each structure is given as a SMILES string.

One may read the IC50 as the concentration that gives 50% inhibition. Regarding `Cc1cn(-c2ccc(N3C[C@@H](C)O[C@@H](C)C3)cc2)c(=O)c2cccc(-c3ccc(C#N)s3)c12` [Embodiment 44], the IC50 lay within 0.5 to 1 µM. The result for `Cc1cn(-c2ccc(N3C[C@@H](C)O[C@@H](C)C3)cc2)c(=O)c2cccc(-c3ccc(Cl)s3)c12` [Embodiment 45] reads 1 to 5 µM. The result for `Cc1cn(-c2ccc(N3C[C@@H](C)O[C@@H](C)C3)cc2)c(=O)c2cccc(-c3ccc(OC(F)(F)F)cc3)c12` [Embodiment 47] reads 1 to 5 µM; that for `Cc1cn(-c2ccc(N3C[C@@H](C)O[C@@H](C)C3)cc2)c(=O)c2cccc(-c3cccn3C)c12` [Embodiment 48], 1 to 5 µM; that for `Cc1cn(-c2ccc(N3C[C@@H](C)O[C@@H](C)C3)cc2)c(=O)c2cccc(-c3ccncc3)c12` [Embodiment 49], 0.5 to 1 µM. The result for `Cc1cn(-c2ccc(N3C[C@@H](C)O[C@@H](C)C3)cc2)c(=O)c2cccc(-c3ccc(F)cc3)c12` [Embodiment 50] reads 0.5 to 1 µM; that for `Cc1cn(-c2ccc(N3C[C@@H](C)O[C@@H](C)C3)cc2)c(=O)c2cccc(-c3ccc(Cl)cc3)c12` [Embodiment 51], 0.1 to 0.5 µM.

On to `Cc1cn(-c2ccc(N3C[C@@H](C)O[C@@H](C)C3)cc2)c(=O)c2cccc(-c3ccc(C#N)cc3)c12` [Embodiment 52], for which the IC50 lay within 0.1 to 0.5 µM. The result for `Cc1cn(-c2ccc(N3C[C@@H](C)O[C@@H](C)C3)cc2)c(=O)c2cccc(-c3ccccn3)c12` [Embodiment 53] reads 0.5 to 1 µM; that for `Cc1cn(-c2ccc(N3C[C@@H](C)O[C@@H](C)C3)cc2)c(=O)c2cccc(-c3cncnc3)c12` [Embodiment 54], 1 to 5 µM; that for `Cc1cn(-c2ccc(N3C[C@@H](C)O[C@@H](C)C3)cc2)c(=O)c2cccc(-c3ccc(C#N)cn3)c12` [Embodiment 55], 1 to 5 µM.

As to `Cc1cn(-c2ccc(N3C[C@@H](C)O[C@@H](C)C3)cc2)c(=O)c2cccc(-c3ccc(C#N)nc3)c12` [Embodiment 56], the IC50 is 0.5 to 1 µM. The result for `Cc1cn(-c2ccc(N3C[C@@H](C)O[C@@H](C)C3)cc2)c(=O)c2cccc(-c3ccccc3)c12` [Embodiment 57] reads 0.5 to 1 µM; that for `Cc1cn(-c2ccc(N3C[C@@H](C)O[C@@H](C)C3)cc2)c(=O)c2cccc(-c3ccc(C#N)c(F)c3)c12` [Embodiment 59], 0.5 to 1 µM; that for `Cc1cn(-c2ccc(N3C[C@@H](C)O[C@@H](C)C3)cc2)c(=O)c2cccc(-c3ccc(C#N)cc3F)c12` [Embodiment 60], 0.1 to 0.5 µM.

As to `Cc1cc(-c2cccc3c(=O)n(-c4ccc(N5C[C@@H](C)O[C@@H](C)C5)cc4)cc(C)c23)ccc1C#N` [Embodiment 61], the IC50 fell in the range of 0.1 to 0.5 µM.

With `Cc1cc(C#N)ccc1-c1cccc2c(=O)n(-c3ccc(N4C[C@@H](C)O[C@@H](C)C4)cc3)cc(C)c12` [Embodiment 62], the IC50 fell in the range of 0.1 to 0.5 µM. The result for `Cc1cn(-c2ccc(N3C[C@@H](C)O[C@@H](C)C3)cc2)c(=O)c2cccc(-c3cccc(C#N)c3)c12` [Embodiment 63] reads 1 to 5 µM; that for `Cc1cn(-c2ccc(N3C[C@@H](C)O[C@@H](C)C3)cc2)c(=O)c2cccc(-c3ccccc3C#N)c12` [Embodiment 64], 0.5 to 1 µM. The result for `Cc1cn(-c2ccc(N3C[C@@H](C)O[C@@H](C)C3)cc2)c(=O)c2cccc(-c3ccc(Br)cc3)c12` [Embodiment 65] reads 0.5 to 1 µM; that for `Cc1cn(-c2ccc(N3C[C@@H](C)O[C@@H](C)C3)nc2)c(=O)c2cccc(-c3ccc(C#N)cc3)c12` [Embodiment 66], 0.5 to 1 µM; that for `Cc1cn(-c2ccc(N3C[C@@H](C)O[C@@H](C)C3)nc2)c(=O)c2cccc(-c3ccc(C(F)(F)F)cc3)c12` [Embodiment 67], 0.5 to 1 µM. The result for `Cc1cn(-c2ccc(N3C[C@@H](C)O[C@@H](C)C3)nc2)c(=O)c2cccc(-c3ccc(OC(F)(F)F)cc3)c12` [Embodiment 68] reads 1 to 5 µM; that for `Cc1cn(-c2ccc(N3C[C@@H](C)O[C@@H](C)C3)cc2)c(=O)c2cccc(-c3ccc(C4CC4)cc3)c12` [Embodiment 69, 5-(4-cyclopropylphenyl)-2-(4-((2R,6S)-2,6-dimethylmorpholino)phenyl)-4-methylisoquinolin-1(2H)-one], 0.5 to 1 µM. With `C[C@@H]1CN(c2ccc(-n3ccc4c(-c5ccc(C#N)cc5)cccc4c3=O)cn2)C[C@H](C)O1` [Embodiment 70, 4-(2-(6-(2,6-dimethylmorpholino-4-yl)pyridin-3-yl)-1-oxo-1,2-dihydroisoquinolin-5-yl)benzonitrile], the IC50 was in the range of 0.5 to 1 µM. The result for `C[C@@H]1CN(c2ccc(-n3ccc4c(-c5ccc(C(F)(F)F)cc5)cccc4c3=O)cn2)C[C@H](C)O1` [Embodiment 71] reads 1 to 5 µM. The result for `C[C@@H]1CN(c2ccc(-n3ccc4c(-c5ccc(OC(F)(F)F)cc5)cccc4c3=O)cn2)C[C@H](C)O1` [Embodiment 72] reads 1 to 5 µM. The result for `C[C@@H]1CN(c2ccc(-n3ccc4c(-c5ccc(C#N)cc5)cccc4c3=O)cc2)C[C@H](C)O1` [Embodiment 73] reads 0.5 to 1 µM; that for `C[C@@H]1CN(c2ccc(-n3ccc4c(-c5ccc(C(F)(F)F)cc5)cccc4c3=O)cc2)C[C@H](C)O1` [Embodiment 74], 1 to 5 µM. As to `C[C@@H]1CN(c2ccc(-n3ccc4c(-c5ccc(OC(F)(F)F)cc5)cccc4c3=O)cc2)C[C@H](C)O1` [Embodiment 75], the IC50 lay in the range of 1 to 5 µM.

Regarding `C[C@@H]1CN(c2ccc(-n3cc(Cl)c4c(-c5ccc(C#N)cc5)cccc4c3=O)cc2Cl)C[C@H](C)O1` [Embodiment 76, 4-(4-chloro-2-(3-chloro-4-((2S,6R)-2,6-dimethylmorpholino)phenyl)-1-oxo-1,2-dihydroisoquinolin-5-yl)benzonitrile], the 50% inhibitory concentration (IC50) was in the range of 0.1 to 0.5 µM.

On to `C[C@@H]1CN(c2ccc(-n3ccc4c(-c5ccc(C#N)cc5)cccc4c3=O)cc2Cl)C[C@H](C)O1` [Embodiment 77, 4-(2-(3-chloro-4-((2S,6R)-2,6-dimethylmorpholino)phenyl)-1-oxo-1,2-dihydroisoquinolin-5-yl)benzonitrile], for which the IC50 is 0.5 to 1 µM. The result for `C[C@@H]1CN(c2ccc(-n3ccc4c(-c5ccc(C#N)cc5)cccc4c3=O)cc2Br)C[C@H](C)O1` [Embodiment 79, 4-(2-(3-bromo-4-((2S,6R)-2,6-dimethylmorpholino)phenyl)-1-oxo-1,2-dihydroisoquinolin-5-yl)benzonitrile] reads 0.5 to 1 µM; that for `C[C@@H]1CN(c2ccc(-n3ccc4c(-c5ccc(C#N)cc5)cccc4c3=O)cc2C2CC2)C[C@H](C)O1` [Embodiment 80, 4-(2-(3-cyclopropyl-4-((2S,6R)-2,6-dimethylmorpholino)phenyl)-1-oxo-1,2-dihydroisoquinolin-5-yl)benzonitrile], 1 to 5 µM; that for `Cc1cn(-c2ccc(N3C[C@@H](C)O[C@@H](C)C3)cc2)c(=O)c2ccnc(-c3ccc(C#N)cc3)c12` [Embodiment 81, 4-(6-(4-((2S,6R)-2,6-dimethylmorpholino)phenyl)-8-methyl-5-oxo-5,6-dihydro-2,6-naphthyridin-1-yl)benzonitrile], 1 to 5 µM. The result for `Cc1cn(-c2ccc(N3C[C@@H](C)O[C@@H](C)C3)cc2)c(=O)c2ccnc(-c3ccc(C(F)(F)F)cc3)c12` [Embodiment 82] reads 1 to 5 µM; that for `Cc1cn(-c2ccc(N3C[C@@H](C)O[C@@H](C)C3)cc2)c(=O)c2ccnc(-c3ccc(OC(F)(F)F)cc3)c12` [Embodiment 83], 1 to 5 µM.

For the origin of these results see US9938292B2 (GUANGDONG ZHONGSHENG PHARMACEUTICAL CO., LTD, priority 2014, dated 2018).
